Source: ChEMBL document CHEMBL5316286, “Inhibition of the Ubiquitin Transfer Cascade by a Peptidomimetic Foldamer Mimicking the E2 N-Terminal Helix” (J Med Chem, 2023)
Calls of active or inactive are those of the source. The calls are words filed in the database; no cut-off is given here. *1 amine or outer side, *2 acyl side, *3 side chain or, on linkers, in order; H or OH if unused. Where a SMILES comes first, the peptide text is derived from it. [ ]: non-standard residue; d: D form. X1 = N=C(N)CCCC[C@H](N[*:1])C(=O)[*:2]

Tests used:
[1] = Stability of compound in ammonium bicarbonate buffer at pH 7.8 at 0.1 mg/ml incubated for 24 hrs by HPLC/MS analysis; format: physicochemical; settings: pH 7.8, 24 h
[2] = Stability of compound in human serum at 1 mg incubated for 24 hrs by HPLC analysis; format: ADME, cell-free
[3] = target: T1, E3 ubiquitin-protein ligase CHIP (Homo sapiens) (UniProt Q9UNE7); assay: (§1) Inhibition of N-terminal Flag-tagged full-length U-box E3 CHIP (unknown origin) self-ubiquitination expressed in Escherichia coli BL21 (DE3) cells assessed as decrease in polyubiquitination at upto 50 uM preincubated for 30 mins followed by ubiquitin addition measured after 1 hr by Western blot analysis; settings: time 90.0 min
T1 sequence (whole entry): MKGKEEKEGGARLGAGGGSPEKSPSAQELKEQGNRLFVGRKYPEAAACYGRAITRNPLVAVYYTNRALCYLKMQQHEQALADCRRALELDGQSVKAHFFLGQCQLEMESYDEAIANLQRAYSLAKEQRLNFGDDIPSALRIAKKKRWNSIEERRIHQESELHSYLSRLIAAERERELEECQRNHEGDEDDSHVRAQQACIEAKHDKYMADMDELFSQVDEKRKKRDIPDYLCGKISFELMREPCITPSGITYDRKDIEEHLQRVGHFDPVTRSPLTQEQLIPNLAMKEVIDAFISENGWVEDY

[4] = target: T1, E3 ubiquitin-protein ligase CHIP (Homo sapiens); assay: Inhibition of N-terminal Flag-tagged full-length U-box E3 CHIP (unknown origin)-mediated CDK4 monoubiquitination expressed in Escherichia coli BL21 (DE3) cells upto 50 uM preincubated for 30 mins followed by ubiquitin addition measured after 1 hr by Western blot analysis; settings: time 90.0 min
[5] = target: T1, E3 ubiquitin-protein ligase CHIP (Homo sapiens); assay: Inhibition of N-terminal Flag-tagged full-length U-box E3 CHIP (unknown origin) self-ubiquitination expressed in Escherichia coli BL21 (DE3) cells assessed as decrease in polyubiquitination at 50 uM preincubated for 30 mins followed by ubiquitin addition measured after 1 hr by Western blot analysis; settings: time 90.0 min
[6] = target: T1, E3 ubiquitin-protein ligase CHIP (Homo sapiens); assay: as §1, with “inhibition of Uba1-UbcH5B-CHIP cascade” for “decrease in polyubiquitination”; settings: time 90.0 min
[7] = target: T2, Ubiquitin-like modifier-activating enzyme 1 (Homo sapiens) (UniProt P22314); assay: Binding affinity to His-tagged Uba1 (unknown origin)-coated Ni-NTA beads assessed as measuring green fluorescence at 10 uM incubated for 30 mins by laser scanning microscopy
T2 sequence (whole entry): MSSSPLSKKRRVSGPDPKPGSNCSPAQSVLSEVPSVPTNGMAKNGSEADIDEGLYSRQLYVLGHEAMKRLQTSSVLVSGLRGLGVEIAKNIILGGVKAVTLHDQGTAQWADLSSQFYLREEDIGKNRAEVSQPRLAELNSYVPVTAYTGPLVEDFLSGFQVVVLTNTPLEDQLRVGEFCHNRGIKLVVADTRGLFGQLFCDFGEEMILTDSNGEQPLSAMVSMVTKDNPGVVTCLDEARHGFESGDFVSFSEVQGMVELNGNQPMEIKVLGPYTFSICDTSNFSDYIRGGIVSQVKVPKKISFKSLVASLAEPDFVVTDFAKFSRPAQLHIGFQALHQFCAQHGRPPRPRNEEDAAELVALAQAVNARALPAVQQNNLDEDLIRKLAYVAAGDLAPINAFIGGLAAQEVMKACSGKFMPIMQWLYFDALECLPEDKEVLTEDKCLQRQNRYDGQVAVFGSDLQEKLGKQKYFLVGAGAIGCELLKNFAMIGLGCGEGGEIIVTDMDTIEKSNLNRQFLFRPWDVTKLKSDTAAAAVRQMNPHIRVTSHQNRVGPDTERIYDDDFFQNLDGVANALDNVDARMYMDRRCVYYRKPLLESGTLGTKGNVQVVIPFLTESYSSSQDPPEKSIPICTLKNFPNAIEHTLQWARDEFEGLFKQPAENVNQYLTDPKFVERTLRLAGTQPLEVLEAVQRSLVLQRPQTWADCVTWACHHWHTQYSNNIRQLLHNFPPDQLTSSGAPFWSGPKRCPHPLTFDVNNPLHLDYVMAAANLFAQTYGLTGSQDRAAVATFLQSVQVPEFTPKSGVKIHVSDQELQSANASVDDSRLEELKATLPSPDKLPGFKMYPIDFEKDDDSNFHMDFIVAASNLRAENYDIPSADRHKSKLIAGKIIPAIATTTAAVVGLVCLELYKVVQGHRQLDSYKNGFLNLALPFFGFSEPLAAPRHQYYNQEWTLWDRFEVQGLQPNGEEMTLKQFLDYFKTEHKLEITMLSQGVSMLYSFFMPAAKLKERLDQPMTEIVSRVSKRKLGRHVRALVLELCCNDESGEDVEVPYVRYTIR

[8] = target: T1, E3 ubiquitin-protein ligase CHIP (Homo sapiens); assay: Inhibition of CHIP-mediated CDK4 ubiquitination in HEK293T cells upto 50 uM preincubated for 14 hrs followed by MG132 addition measured after 12 hrs by Western blot analysis; format: cell-based; settings: time 26.0 hrs
[9] = target: T1, E3 ubiquitin-protein ligase CHIP (Homo sapiens); assay: Inhibition of CHIP (unknown origin) self-ubiquitination upto 50 uM in presence of ubiquitin-preloaded UbcH5B by Western blot analysis
[10] = target: Cyclin-dependent kinase 4 (Homo sapiens) (UniProt P11802); assay: Inhibition of CDK4 ubiquitination in HEK293 cells overexpressing CHIP upto 50 uM by Western blot analysis; format: cell-based
Homo sapiens = species on record: Homo sapiens; assay: Disruption of Uba1/UbcH5B (unknown origin) interaction assessed as inhibition of UbcH5B-ubiquitin conjugate formation at 50 uM preincubated for 30 mins followed by ubiquitin addition measured after 30 mins by Western blot analysis
[11] = Aggregation propensity of the compound in D2O assessed as signal shift at 1 mM measured for 24 hrs by 1H-NMR analysis; format: physicochemical; settings: 1000 µM
[12] = Aggregation propensity of the compound in D2O assessed as signal shift at 1 mM measured after 10 days by 1H-NMR analysis; format: physicochemical; settings: 240 h, 1000 µM, time 10 day
Erythrocyte = assay: Hemolytic activity in human RBC assessed as cell membrane disruption upto 400 uM incubated for 1 hr by microplate reader analysis; format: toxicity, cell-based
HEK293 = assay: Cytotoxicity against HEK293 cells assessed as cell membrane disruption upto 100 uM incubated for 24 hrs by DAPI/PI staining based confocal microscopy; format: toxicity; settings: human, hek293, 24 h

Cyclin-dependent kinase 4 (Homo sapiens), sequence (P11802 whole entry): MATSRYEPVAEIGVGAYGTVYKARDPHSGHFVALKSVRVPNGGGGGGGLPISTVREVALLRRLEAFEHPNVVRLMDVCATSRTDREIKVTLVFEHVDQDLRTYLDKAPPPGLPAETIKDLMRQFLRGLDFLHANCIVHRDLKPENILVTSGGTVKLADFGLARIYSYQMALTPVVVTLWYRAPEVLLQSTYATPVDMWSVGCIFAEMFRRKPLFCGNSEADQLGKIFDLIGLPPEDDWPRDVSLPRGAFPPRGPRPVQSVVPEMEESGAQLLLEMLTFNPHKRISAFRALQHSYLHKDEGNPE

SMILES: CC[C@H](C)[C@H](NC(=O)[C@H](CCC(=O)O)NC(=O)[C@H](CCCCN)NC(=O)[C@H](CCSC)NC(=O)[C@@H](NC(=O)[C@H](CCCNC(=N)N)NC(=O)[C@H](CCCCN)NC(=O)[C@H](C)NC(=O)[C@H](CCCCC(=N)N)NC(=O)[C@H](CO)NC(=O)[C@H](CO)NC(C)=O)[C@@H](C)CC)C(=O)N[C@@H](CCC(N)=O)C(=O)N[C@@H](C)C(=O)N[C@H](C(=O)N[C@@H](CCCCN)C(=O)N[C@@H](CC(=O)O)C(N)=O)C(C)C (Ac-SS[X1]AKRIMKEIQAVKD-NH2)
- Stability [1]: Stable
- Stability [2]: Stable

SMILES: CC(=O)N[C@H](CO)CN(CC(=O)N[C@H](C)CN(CC(=O)N[C@H](CCCCN)CN(CC(=O)N[C@H](CC(C)C)CN(CC(=O)N[C@H](CCCCN)CN(CC(=O)N[C@@H]1CCCCNC(=O)c2ccc(cc2)C(=O)NCCCC[C@H](CN(CC(N)=O)S(C)(=O)=O)NC(=O)CN(S(=O)(=O)CC(C)C)C[C@@H](CCC(=O)O)NC(=O)CN(S(C)(=O)=O)C1)S(C)(=O)=O)S(=O)(=O)CCN)S(=O)(=O)CCN)S(=O)(=O)CC(C)C)S(=O)(=O)CC(C)C
- inhibition [3]: inactive
- inhibition [4]: inactive

SMILES: CC(=O)N[C@H](CO)CN(CC(=O)N[C@@H]1CCCCNC(=O)c2ccc(cc2)C(=O)NCCCC[C@H](CN(CC(=O)N[C@H](CCCCN)CN(CC(=O)N[C@H](CC(C)C)CN(CC(=O)N[C@H](CCC(=O)O)CN(CC(=O)N[C@H](CCCCN)CN(CC(N)=O)S(=O)(=O)CCN)S(=O)(=O)CC(C)C)S(=O)(=O)CCN)S(C)(=O)=O)S(C)(=O)=O)NC(=O)CN(S(=O)(=O)CCN)C[C@@H](CCCCN)NC(=O)CN(S(C)(=O)=O)C1)S(=O)(=O)CC(C)C
- inhibition [3]: inactive
- inhibition [4]: inactive

SMILES: COc1ccc(S(=O)(=O)N(CC(=O)N[C@H](CCCCN)CN(CC(=O)N[C@H](CCCCN)CN(CC(=O)N[C@H](CC(C)C)CN(CC(=O)N[C@H](CCCCN)CN(CC(=O)N[C@@H]2CCCCNC(=O)c3ccc(cc3)C(=O)NCCCC[C@H](CN(CC(N)=O)S(C)(=O)=O)NC(=O)CN(S(C)(=O)=O)C[C@@H](CCCCN)NC(=O)CN(S(C)(=O)=O)C2)S(C)(=O)=O)S(=O)(=O)CCN)S(=O)(=O)CCN)S(C)(=O)=O)C[C@@H](CCCCN)NC(C)=O)cc1
- inhibition [5]: Active
- inhibition [4]: inactive

SMILES: COc1ccc(S(=O)(=O)N(CC(=O)N[C@@H](CCCCN)CN(CC(=O)N[C@@H](CCCCN)CN(CC(=O)N[C@@H](CC(C)C)CN(CC(=O)N[C@@H](CCCCN)CN(CC(=O)N[C@@H](CC(C)C)CN(CC(=O)N[C@@H](CCCCN)CN(CC(=O)N[C@@H](CC(C)C)CN(CC(N)=O)S(=O)(=O)CCN)S(C)(=O)=O)S(=O)(=O)CC(C)C)S(C)(=O)=O)S(=O)(=O)CCN)S(=O)(=O)CCN)S(C)(=O)=O)C[C@H](CCCCN)NC(C)=O)cc1
- inhibition [6]: inactive
- Activity [7]: inactive

SMILES: CC(=O)N[C@H](CO)CN(CC(=O)N[C@H](C)CN(CC(=O)N[C@H](CCCCN)CN(CC(=O)N[C@H](CC(C)C)CN(CC(=O)N[C@H](CCCCN)CN(CC(=O)N[C@H](CC(C)C)CN(CC(=O)N[C@H](CCC(=O)O)CN(CC(=O)N[C@H](CCCCN)CN(CC(N)=O)S(=O)(=O)CCN)S(=O)(=O)CC(C)C)S(=O)(=O)CCN)S(C)(=O)=O)S(=O)(=O)CCN)S(=O)(=O)CCN)S(=O)(=O)CC(C)C)S(=O)(=O)CC(C)C
- inhibition [6]: inactive

SMILES: CC(=O)N[C@H](CO)CN(CC(=O)N[C@H](C)CN(CC(=O)N[C@H](CCCCN)CN(CC(=O)N[C@@H]1CCCCNC(=O)c2ccc(cc2)C(=O)NCCCC[C@H](CN(CC(=O)N[C@H](CCC(=O)O)CN(CC(=O)N[C@H](CCCCN)CN(CC(N)=O)S(=O)(=O)CCN)S(=O)(=O)CC(C)C)S(C)(=O)=O)NC(=O)CN(S(C)(=O)=O)C[C@@H](CCCCN)NC(=O)CN(S(C)(=O)=O)C1)S(=O)(=O)CCN)S(=O)(=O)CC(C)C)S(=O)(=O)CC(C)C
- inhibition [3]: inactive
- inhibition [4]: inactive

SMILES: COc1ccc(S(=O)(=O)N(CC(=O)N[C@@H]2CCCCNC(=O)c3ccc(cc3)C(=O)NCCCC[C@H](CN(CC(=O)N[C@H](CCCCN)CN(CC(=O)N[C@H](CC(C)C)CN(CC(=O)N[C@H](CCCCN)CN(CC(=O)N[C@H](CC(C)C)CN(CC(N)=O)S(=O)(=O)CCN)S(C)(=O)=O)S(=O)(=O)CC(C)C)S(C)(=O)=O)S(C)(=O)=O)NC(=O)CN(S(=O)(=O)CCN)C[C@@H](CCCCN)NC(=O)CN(S(C)(=O)=O)C2)C[C@@H](CCCCN)NC(C)=O)cc1
- inhibition [5]: Active
- inhibition [4]: Active
- inhibition [8]: Active
- inhibition [9]: inactive
- inhibition [10]: Active
- inhibition (Homo sapiens): Active
- Activity [11]: Not Active
- Activity [12]: Active
- Activity (Erythrocyte): Non-Toxic
- Activity (HEK293): Non-Toxic
- Stability [1]: Stable
- Stability [2]: Stable
